The structures appear in SMILES notation.

For data set [1], the system named is A375 (malignant melanoma). As to the kind of experiment: Anti-proliferative activity, A375. The class given is cell-based. The note with it: Homo sapiens, A-375, read-out: Cell proliferation, IC50.
In data set [2] the test system is HL60 (acute promyelocytic leukemia). As to the kind of experiment: Anti-proliferative activity, HL60. Format: cell-based. As to conditions: Homo sapiens, HL-60, read-out: Cell proliferation, IC50.
Data set [3] can be described thus: Body weight change in MV4-11 xenograft mice. The class given is in vivo, NOD/SCID mice. The note with it: 50 and 100 mpk, PO. Here is the method:
(§1) A total of 48 NOD/SCID female mice of 6-8 weeks age and weighing approximately 18 to 22 g, purchased from HFK (Beijing HFK Bio-Technology Co. Ltd.), were used for tumor inoculation.
Each mouse was inoculated subcutaneously at the right flank with MV4-11 tumor cells (1×10^7 cells) in mixture of 100 ul PBS and 100 ul of Matrigel™ for tumor development. A total of […] mice were used for each group. The amounts of treated compounds are represented in milligram (mg) of compound per kilogram (kg) of animal body weight (mg/kg, mpk). Administration route of the test compound was PO (oral) injection. Three groups, i.e., vehicle group (Control group), 50 mpk group (treatment at 50 mpk of compound 1 through PO injection) and 100 mpk group (treatment at 100 mpk of compound 1 through PO injection) of mice were used. The overall administration schedule was 2 cycles of treatment for 5 days (5 d ON), followed by 2 days of non-treatment (2 d OFF).

Data set [4] concerns RS4;11 (acute lymphoblastic leukemia). As to the kind of experiment: Anti-proliferative activity, RS4;11. The note with it: Homo sapiens, read-out: Cell proliferation, IC50. The class given is cell-based.
Data set [5] has as its system Daudi (B lymphoma). Nature of the data set: Anti-proliferative activity, Daudi. The class given is cell-based. The note with it: Homo sapiens, read-out: Cell proliferation, IC50.
Data set [6] in a line: Human liver microsomal stability/clearance. As to conditions: human liver microsomes; first value of Human/Mouse cell; read-out: Liver microsomal clearance (Human). The class given is in vitro ADME. The protocol: (§2) Human and mouse liver microsomal clearance assays were carried out in CROWN Biosciences (Taicang, China). The human liver microsomes (Cat No. X008067, Lot No. KQB) and mouse liver microsomes (Cat No. M1000, Lot No. 1210302) were purchased from Celsis and Xenotech, respectively.
(§3) 5 μL of test compound stock solution was diluted with 495 μL of 1:1 Methanol/Water (final concentration: 100 μM, 50% MeOH) and combined with 534 μL of the respective liver microsome solution (final concentration: 1.111 μM, 0.555% MeOH). The final concentration of the liver microsome solution was 0.7 mg protein/mL.
(§4) Incubations of the liver microsome solutions were performed in a 96 well plate at 37° C. 90 μL of the liver microsome solutions were added to Blank, and 90 μL of working solution of the test compound was added to all plates except the Blank.
(§5) All plates thus obtained were warmed in water bath at 37° C. for 10 min, and 10 μL of NADPH co-factor solution comprising 42 mg of β-nicotinamide adenine dinucleotide phosphate (Sigma Cat. No. N0505 Lot 020M7009V), 84 mg of isocitric acid (Sigma Cat. No. 11252 Lot 119K1099) and 0.478 mL of isocitric dehydrogenase (Sigma Cat. No. 12002 Lot 086K7055, 15 units/mg protein, warmed in water bath at 37° C. for 5 min was added to the plates. The resulting plates were incubated at 37° C. in the following order: T60 (The test compounds were incubated with the liver microsomal solution and NADPH for 60 min at 37° C.), T30 (such as for 30 min.), and T10 (such as for 10 min.). 300 μL of a cold (4° C.) stop solution (acetonitrile (ACN) including 500 nM of tolbutamide as internal standard) and 10 μL of NADPH co-factor solution to starting plate (T0: 100% of the parent compound without any reaction) were added to the plates. The reaction was stopped by adding 300 μL of the cold (4° C.) stop solution to the other plates in the following order: T10 first, then T30 and T60.
(§6) The samples were centrifuged at 4,000 rpm for 20 min and transferred to Bioanalytical Services for liquid chromatography-mass spectrometry (LC-MS)/MS (Waters UPLC/API 4000, 10 μL injection) analysis.
On the technique in general: Microsomes from liver hold many membrane-bound enzymes, among them those of drug oxidation.

Data set [7] has as its system MV4-11 human leukemia xenograft. Nature of the data set: Tumor growth inhibition in MV4-11 human leukemia mouse xenograft. As to conditions: PO, 5 d ON/2 d Off × 2 (14 days). Format: in vivo, NOD/SCID mice. Here is the method:
Tumor growth inhibition (TGI) activities of compound 1 were tested in MV4-11 human leukemia mouse xenograft.
as §1
The MV4-11 cell line was maintained in vitro in IMDM (Iscove's modified Dulbecco's media) supplemented with 10% fetal bovine serum at 37° C. in an atmosphere of 5% CO2 in air. The tumor cells were routinely subcultured twice weekly by trypsin-EDTA treatment. The cells growing in an exponential growth phase were harvested and counted for tumor inoculation. The treatments were started when the tumor size reached approximately 150-200 mm^3.
Each mouse was inoculated subcutaneously at the right flank with MV4-11 tumor cells (1×10^7 cells) in mixture of 100 ul PBS and 100 ul of Matrigel™ for tumor development. A total of […] mice were used for each group. The amounts of treated compounds are represented in milligram (mg) of compound per kilogram (kg) of animal body weight (mg/kg, mpk). Administration route of the test compound was PO (oral) injection. […]
Tumor sizes were measured using a caliper, once every 4 days, and the tumor volume was expressed in mm^3 using Equation 1: V=0.5a×b^2 [Equation 1] […]

The test system of data set [8] is MOLT-4 (acute lymphoblastic leukemia). As to the kind of experiment: Anti-proliferative activity, MOLT-4. The class given is cell-based. The note with it: Homo sapiens, read-out: Cell proliferation, IC50.
Data set [9] deals with SK-LU-1 (adenocarcinoma). Nature of the data set: Anti-proliferative activity, SK-LU-1. The class given is cell-based. The note with it: Homo sapiens, SKLU-1 (Adenocarcinoma), read-out: Cell proliferation, IC50.
A short description of data set [10]: Mouse liver microsomal stability/clearance. As to conditions: mouse liver microsomes; second value of Human/Mouse cell; read-out: Liver microsomal clearance (Mouse). Format: in vitro ADME. The protocol: as §2, §3, §4, §5, §6

Turning to `COc1ccc2c(c1)C(c1ccc(Cl)cc1)=N[C@@H](COS(C)(=O)=O)c1nnc(C)n1-2` [Compound 1, (R)-(6-(4-chlorophenyl)-8-methoxy-1-methyl-4H-benzo[f]-[1,2,4]triazolo[4,3-a][1,4]diazepin-4-yl)methyl methanesulfonate], the IC50 in data set [1] came to 5.57 µM; in data set [2] it was 1.24 µM; in [4] it was 3.14 µM; in data set [5], 5.09 µM; in data set [8], 2.63 µM; in [9] it was 6.96 µM. For the same molecule, in data set [3], the “BW change (%) (in words)” value is listed as “very low”. For the same molecule, the microsomal CLint at 1 µM in [6] came to 2.3 µL/min/mg; in data set [10] it was 4.7 µL/min/mg. Besides, the “% TGI” value in data set [7] (50 mpk) was found to be 77%; in data set [7] (100 mpk), 84%.

Values taken from patent publication US9884874B2, “Bromodomain-inhibiting compounds and pharmaceutical composition comprising same for preventing or treating a cancer” (KAINOS MEDICINE, INC., priority 2014, dated 2018).
